For one series, the system named is L-GMPs. Briefly: methylcellulose assay of shRNA-infected L-GMPs. Format: cell-based, mouse. The note with it: compared to control shRNA, FIG. 2C. As for the experimental part: (§1) However, its functional role in normal and malignant hematopoiesis is unclear. […] Aldh3a2 knockdown in L-GMPs decreased the number of cells in a methylcellulose assay (FIG. 2C and FIG. 9A) that quantifies growth on a per cell basis.
(§2) Ten thousand N-GMPs or L-GMPs infected with lentiviruses expressing relevant shRNAs were added to 3 cc of methylcellulose (StemCell Technologies) plated per well of a 6 well plate. Number of cells were counted on day 7.

The next series deals with Aldh3a2. The series can be described thus: Q-PCR validation of Aldh3a2 knockdown in L-GMPs. The note with it: FIG. 2B. The format is cell-based, mouse. The procedure:
as §1
RNA was extracted from cells using the RNeasy Micro Kit (Qiagen) and RT-PCR was performed using the SuperScript™ IV One-Step RT-PCR System according to the manufacturer's instructions. Taqman probes were used to perform Q-PCR for murine and human Aldh3a2.

Series [1] relates to MLL-AF9 leukemia (L-GMPs). Briefly: survival of sublethally irradiated C57BL/6J mice transplanted with shRNA-expressing L-GMPs. The format is in vivo, mouse. The note with it: ten thousand L-GMPs transplanted, vs control shRNA, FIG. 2D. The source says: To evaluate Aldh3a2 knockdown in vivo, ten thousand L-GMPs expressing Aldh3a2-sh-1, Aldh3a2-sh-2 or control shRNA were transplanted into sublethally irradiated C57BL/6J recipient mice and followed over time.

Series [2] relates to Aldh3a2-control and mutant LSPCs. The series can be described thus: frequency of live Aldh3a2-control and mutant LSPCs after drug treatment. The format is cell-based, mouse. To be noted: three days. The source says: The specific mechanism for the reduced number of leukemic cells upon Aldh3a2 deletion was next investigated.
Lipid peroxidation has been linked to the induction of ferroptosis, a non-apoptotic, iron-dependent form of cell death. An increase in lysophospholipids, especially those lacking PUFA tails as was observed (FIG. 13E), is a hallmark of ferroptosis. In addition, the ability to rescue cell death by providing exogenous MUFAs, as was found (FIG. 12H), is another feature of ferroptotic cell death. To further confirm these findings cells were treated with ferrostatin, an inhibitor of iron-dependent oxidative damage.
To further assess the relationship to ferroptosis, a key enzyme protecting cells from ferroptotic cell death, glutathione peroxidase 4 (Gpx4) was genetically and pharmacologically targeted. […] Recent findings have shown that activation of MUFAs by Acs13 can also promote resistance to ferroptosis. Acs13 expression was not different between Aldh3a2 control and mutant leukemic cells (FIG. 13F).
(§3) RSL3 (at 5 uM), 4-HNE (5 uM) and ZVAD (at 10 uM) was added to Lin-Kit- or Lin-Kit+ leukemic cells in RPMI containing 10 ng/ul of murine IL3, IL6 and SCF. Ferrostatin (10 uM) was added to bulk leukemic cells in RPMI containing 10 ng/ul of murine IL3, TPO and FLT3L. Number of cells were measured by Celltiter GloR 2.0 assay at days 0, 1 and 3. 10 mM of NAC was added to RPMI with 10 percent FBS and 1 percent P/S for relevant rescue experiments. Drugs were purchased from Sigma.

For the next series, the system named is THP-1 cells. The series can be described thus: growth kinetics of ALDH3A2-depleted THP-1 cells treated with NAC. The format is cell-based, human. To be noted: 10 mM NAC, FIG. 12D. The procedure: In cells cultured in [1,2-^13C2]glucose, the oxPPP generates singly ^13C labeled (M1) intermediates, glycolysis generates doubly 13C labeled (M2) intermediates, and the M1/M2 ratio reflects the oxPPP flux relative to glycolysis (FIG. 12E). […] Cells lacking ALDH3A2 thus fail to increase antioxidant defense mechanisms to mitigate the increased oxidative stress and prevent lipid peroxidation.
as §3

For series [3], the system named is Aldh3a2-control and mutant leukemic cells. Briefly: fatty acid rescue experiments (viability by flow cytometry). The format is cell-based, mouse. To be noted: FIG. 12H. The procedure:
By detoxifying fatty aldehydes, Aldh3a2 generates fatty acids that can be used for biosynthetic purposes (FIG. 12A). […] To further investigate the consequences of this depletion of 18-carbon fatty acids in Aldh3a2 knockout cells lipidomics analysis was performed on leukemic cells derived from conditional knockout mice (FIGS. 13A-13E). Several, but not all, phospholipid species containing 18-carbon fatty acid tails were decreased in mutant cells across lipid classes, including phosphatidylcholines, phosphatidylethanolamines, cardiolipins and phosphatidic acids (FIGS. 13A-13D).
Cell viability was analyzed using Annexin V-APC (BioLegend) and 7-AAD (ThermoFisher Scientific) with Annexin V^−7-AAD^− cells considered as viable cells. Analysis was performed on A BD LSR II flow cytometer.
Bulk GFP+ cells sorted from wildtype or mutant mice were plated in a 24 well plate at 50,000 cells per well. Oleic acid (Sigma), complexed to fatty acid-free bovine serum albumin, was added at concentrations of 62.5, 125 or 250 μM. Ethanol/albumin was used as control. 72 hours later cell viability was analyzed by flow cytometry.
For orientation: A flow cytometer gives signals particle by particle.

Series [4] deals with leukemic stem and progenitor cells (LSPCs). The series can be described thus: growth kinetics of Aldh3a2-control and mutant LSPCs treated with 4HNE. Format: cell-based, mouse. The note with it: 4-HNE 5 uM, FIG. 5E. The source says:
Aldehyde dehydrogenases metabolize aldehydes to mitigate oxidative stress and prevent lipid peroxidation in the cell. […] Next, oxidative damage in AML cells lacking Aldh3a2 was examined. […] To further assess deficits in detoxification capacity, the effects of 4-hydroxynonenal (4-HNE) was studied next, a commonly investigated fatty aldehyde and a byproduct of arachidonic acid catabolism, on cellular ROS, lipid peroxidation and proliferation in Aldh3a2-deficient leukemia stem and progenitor cells. […] Lastly, normal granulocyte monocyte precursors (N-GMPs) were investigated. […] RSL3 (at 5 uM), 4-HNE (5 uM) and ZVAD (at 10 uM) was added to Lin-Kit- or Lin-Kit+ leukemic cells in RPMI containing 10 ng/ul of murine IL3, IL6 and SCF. Ferrostatin (10 uM) was added to bulk leukemic cells in RPMI containing 10 ng/ul of murine IL3, TPO and FLT3L. Number of cells were measured by Celltiter GloR 2.0 assay at days 0, 1 and 3. 10 mM of NAC was added to RPMI with 10 percent FBS and 1 percent P/S for relevant rescue experiments. Drugs were purchased from Sigma.

The test system is the same in series [5]. The series can be described thus: lipid peroxidation by flow cytometry in Aldh3a2-control and mutant LSPCs. Format: cell-based, mouse. The note with it: FIG. 5D. An excerpt: (§4) Aldehyde dehydrogenases metabolize aldehydes to mitigate oxidative stress and prevent lipid peroxidation in the cell. […] Next, oxidative damage in AML cells lacking Aldh3a2 was examined. […] To further assess deficits in detoxification capacity, the effects of 4-hydroxynonenal (4-HNE) was studied next, a commonly investigated fatty aldehyde and a byproduct of arachidonic acid catabolism, on cellular ROS, lipid peroxidation and proliferation in Aldh3a2-deficient leukemia stem and progenitor cells. […] Lastly, normal granulocyte monocyte precursors (N-GMPs) were investigated. […] Spleens from Aldh3a2-Ctrl and Aldh3a2-mut mice were utilized to obtain single cell suspensions and were incubated with C11 Bodipy lipid peroxidation sensor (ThermoFisher Cat #C10445) or CellRox reagent (ThermoFisher Cat #C10491) for 30 minutes at […]. Cells were stained with biotinylated antibodies against lineage markers, SA-Pacific Orange conjugate (ThermoFisher) and APC Rat Anti-Mouse CD117 (BD Biosciences) and read on the LSRII flow cytometer. Lipid peroxidation and cellular ROS was assessed in Lineage-, c-Kit^+ and Lineage^−, c-Kit^hi populations. RSL3 (at 5 uM), 4-HNE (5 uM) and ZVAD (at 10 uM) was added to Lin-Kit- or Lin-Kit+ leukemic cells in RPMI containing 10 ng/ul of murine IL3, IL6 and SCF. […] Number of cells were measured by Celltiter GloR 2.0 assay at days 0, 1 and 3. […]

The test system is the same in series [6]. The series can be described thus: cellular ROS by flow cytometry in Aldh3a2-control and mutant LSPCs. The format is cell-based, mouse. To be noted: FIG. 5C.
Source text: as §4

The next series relates to N-GMPs. Briefly: methylcellulose assay of shRNA-infected N-GMPs. Format: cell-based, mouse. The note with it: compared to control shRNA, FIG. 3A.
Source text: Then a constitutive knockout mouse model (KO) was utilized where Aldh3a2 enzyme activity was decreased to less than 50 percent of wild-type (WT) control mice (FIG. 3B). (This model consists of a deletion of exon 4 of the Aldh3a2 gene which completely destroys Aldh3a2 enzyme activity but assays of cell homogenates measure total fatty aldehyde oxidizing activity including aldehyde dehydrogenases other than Aldh3a2).
as §2

Residues, ends and D or L forms follow the SMILES beside them. *: point of attachment. Cbz = O=C(OCc1ccccc1)*; CH2F = FC*

As to “Aldh3a2-sh-2: shRNA against mouse Aldh3a2, CCTCTGGCTCTTTATGTATTT (SEQ ID NO: 2)”, in the series on L-GMPs, the “number of L-GMPs in methylcellulose” value is “significantly decreases the number of L-GMPs in methylcellulose”. In addition, in the series with Aldh3a2, the “Aldh3a2 expression in L-GMPs” value was “decreased Aldh3a2 expression in L-GMPs”. The “survival of recipient mice” value in [1] is recorded as “survive significantly longer than control animals”.
As to `CC(NC(=O)C(NC(=O)OCc1ccccc1)C(C)C)C(=O)NC(CC(=O)O)C(=O)CF` (stereo not drawn) [Z-VAD] (Cbz-Val-Ala-Asp-CH2F; configuration not given here), the “rescue of cell death in Aldh3a2 deficient cells” value in [2] (ZVAD 10 uM, Lin- cKit+ cells, FIG. 6F) is recorded as “did not rescue the cell death”.
As for `CC(=O)N[C@@H](CS)C(=O)O` [NAC, N-Acetyl-L-Cysteine], the “rescue of ALDH3A2 depleted THP-1 cells” value in the series with THP-1 cells was “partial rescue in the population of cells with moderate (sh-A) but not severe (sh-B) ALDH3A2 depletion”.
With `COC(=O)c1ccc([C@@H]2c3[nH]c4ccccc4c3C[C@@H](C(=O)OC)N2C(=O)CCl)cc1` [RSL3], in series [2] (RSL3 5 uM, FIG. 6I and 14C), the “sensitivity of Aldh3a2 deficient Lin-cKit+ AML cells” value is reported as “increased sensitivity”.
For `CCOC(=O)c1ccc(NC2CCCCC2)c(N)c1` [Ferrostatin], the “cell death in Aldh3a2 mutant leukemia cells” value in series [2] (Ferrostatin 10 uM, FIG. 6H and 14B) is “completely prevented the cell death”.
For `CCCCCCCC/C=C\CCCCCCCC(=O)O` [oleic acid], the “rescue of the effects of Aldh3a2 depletion” value in series [3] (exogenous oleic acid (18:1), conditional mutant mice) is listed as “rescued the effects of Aldh3a2 depletion”. In addition, the “concentration of maximum rescue of cells from death” value in series [3] (three days culture, 62.5, 125 or 250 μM tested) was determined as 125 µM.
Take `CCCCCC(O)/C=C/C=O` (stereo not shown) [4-HNE, 4-hydroxynonenal]: the “sensitivity to 4HNE, mutant versus control” value in series [4] is reported as “significantly greater in mutant than in control cells”. The cell growth entry in series [4] (control and mutant cells) was “reduced cell growth”. Besides, in series [5] (4-HNE exposure), the lipid peroxidation entry is “increased levels of lipid peroxidation in mutant but not in control cells”. Further, the “cellular ROS” value in series [6] (4-HNE exposure for 24 hours) is “increased cellular ROS in mutant but not control cells”.
Turning to Vitamin E, the lipid peroxidation result in [5] (4HNE plus vitamin E treatment) is given as “significantly decreased lipid peroxidation in both populations”. For the same compound, in series [6] (4HNE plus vitamin E treatment), the “total ROS” value is listed as “decreased total ROS in control cells but was unable to do so in mutant cells”.
As for “Aldh3a2-sh-1: shRNA against mouse Aldh3a2, GCAGGAAATGCTGTGATTATA (SEQ ID NO: 1)”, the “number of L-GMPs in methylcellulose” value with L-GMPs is “significantly decreases the number of L-GMPs in methylcellulose”. Besides, the “number of N-GMPs in methylcellulose” value with N-GMPs was “no difference in the number of N-GMPs”. Moreover, the “Aldh3a2 expression in L-GMPs” value with Aldh3a2 was “decreased Aldh3a2 expression in L-GMPs”. In addition, the “survival of recipient mice” value in [1] is on record as “survive significantly longer than control animals”.

The record behind these values is US20230000896A1, “ALDH3A2 INHIBITION AND FERROPTOSIS INDUCTION FOR CANCER THERAPY” (President and Fellows of Harvard College, priority 2019, published 2023).
